The source of these data is PMC4015918, “Conjugation to a SMAC mimetic potentiates sigma-2 ligand induced tumor cell death in ovarian cancer” (Molecular Cancer, 2014).

In assay [1] the test system is SKOV3 cells. In words: Blocking study: competition with uptake of fluorescent sigma-2 ligand SW120, flow cytometry. The assay is classed as cell-based. Conditions: SKOV3 cells pretreated 30 min with increasing concentrations, then 10 nM SW120 for 30 min. Here is the method:
Figure 1 Compound structures and cell binding characteristics of SW IV-134. (A) The chemical structures of sigma-2 ligand SW43, the SMAC peptidomimetic SW IV-52, and the chemical conjugate SW IV-134. Note that the chirality of SW IV-52 is fully retained in the drug conjugate (asterisks). […] SKOV3 cells were pretreated with increasing concentration of SW IV-134, followed by incubation with SW120, prior to analysis by flow cytometry.
SKOV3 cells (3 × 10^4/well) were seeded into 6 cm plates for 24 hours before treatment. The cells were incubated with 5, 10, 50, and 100 μM doses of SW IV-134 for 30 minutes at 37°C. After this step, 10 nM SW120 was added to the cell culture medium containing SW IV-134. After 30 minute incubation at 37°C, cells were washed twice with phosphate buffered saline (PBS) and harvested with 0.05% trypsin EDTA (Life Technologies, Grand Island, NY). The cells were centrifuged at 1000 × g for 5 minutes and pellets washed twice with PBS. Internalization of SW120 was determined by flow cytometer (FACSCalibur, BD Biosciences, San Jose, CA).
Supplementary file 1476-4598-13-50-S2.pdf: Additional file 2: Figure S1 Receptor binding characteristics of the individual components of SW IV-134. SKOV3 cells were pretreated with increasing concentration of (A) SW43 and (B) SW IV-52, followed by incubation with SW120, prior to analysis by flow cytometry. […] Click here for file
Background: A flow cytometer gives signals particle by particle.

The target in assay [2] is T1, sigma-1 receptor (Cavia porcellus, UniProt Q60492).
T1 construct: guinea pig brain (sigma-1 assay) or rat liver (sigma-2 assay) membrane homogenates; from tissue; host or cells: guinea pig brain membrane homogenate
T1 sequence (Q60492 whole entry): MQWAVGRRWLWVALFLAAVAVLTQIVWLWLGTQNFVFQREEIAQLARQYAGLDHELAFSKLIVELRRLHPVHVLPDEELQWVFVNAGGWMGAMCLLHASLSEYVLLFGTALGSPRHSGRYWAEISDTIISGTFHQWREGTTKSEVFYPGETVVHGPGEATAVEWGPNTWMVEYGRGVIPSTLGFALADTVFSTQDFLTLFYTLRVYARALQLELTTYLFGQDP
In words: Sigma-1 receptor binding, [3H](+)-pentazocine displacement in guinea pig brain membrane homogenates. Conditions: inhibiting binding of [3H](+)-pentazocine to guinea pig brain homogenates; mean ± S.E.M., at least three experiments. On the procedure:
The sigma-1 and sigma-2 receptor binding affinities of SW IV-134 were determined as previously described. Briefly, guinea pig brain (sigma-1 assay) or rat liver (sigma-2 assay) membrane homogenates (~300 μg protein) were diluted with 50 mM Tris-HCl, pH 8.0 and incubated with the radioligand {~5 nM [^3H](+)-pentazocine (34.9 Ci/mmol; sigma-1 assay) or ~5 nM [3H](+)-DTG (58.1 Ci/mmol; sigma-2 assay)} and SW IV-134 with concentrations ranging from 0.1 nM to 10 μM in a total volume of 150 μL in 96-well plates at 25°C. […] Each filter was washed three times with 200 μL of ice-cold wash buffer, and the bound radioactivity quantified using a Wallac 1450 MicroBeta liquid scintillation counter (Perkin Elmer, Boston, MA). Nonspecific binding was determined in the presence of 10 μM cold haloperidol. […]
Table S1. […] The sigma-1 and sigma-2 receptor binding affinities of S W I V-134 were determined as previously described (22). For details see also the Materials and Methods section. a Mean ± S .E .M .K i values were determined by at least three ex periments. b Ki for inhibiting the binding of [ 3H] […]

The target in assay [3] is T2, XIAP (Homo sapiens, UniProt P98170).
T2 construct: endogenous in cells; host or cells: SKOV3
T2 sequence (P98170 whole entry): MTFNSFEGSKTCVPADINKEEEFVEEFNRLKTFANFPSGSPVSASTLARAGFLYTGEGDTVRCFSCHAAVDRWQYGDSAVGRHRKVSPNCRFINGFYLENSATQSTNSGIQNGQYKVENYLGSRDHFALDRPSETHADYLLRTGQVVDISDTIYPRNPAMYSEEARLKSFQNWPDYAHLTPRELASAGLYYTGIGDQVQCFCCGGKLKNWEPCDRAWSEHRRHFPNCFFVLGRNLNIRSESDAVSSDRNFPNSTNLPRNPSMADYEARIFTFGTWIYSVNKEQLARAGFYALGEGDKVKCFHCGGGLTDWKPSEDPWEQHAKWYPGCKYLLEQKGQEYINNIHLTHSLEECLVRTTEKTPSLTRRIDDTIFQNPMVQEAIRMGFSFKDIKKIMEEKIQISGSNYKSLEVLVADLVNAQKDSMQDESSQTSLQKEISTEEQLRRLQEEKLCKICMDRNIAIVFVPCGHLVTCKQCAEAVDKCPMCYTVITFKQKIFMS
In words: Western blot for XIAP levels. The assay is classed as cell-based. Particulars: SKOV3 cells, 10 μM, 4 hours. Here is the method:
(§1) Figure 4 SW IV-134 engages in SMAC-dependent pathway activation. (A) SKOV3 cells were treated with vehicle only (Ctrl.), SW43 (10 μM), and SW IV-134 (10 μM) for 4 hours and cell lysates were subjected to Western blot analysis using antibodies against XIAP, cIAP-1, cIAP-2, NF-қB and NIK. While XIAP seems unaffected under the conditions used, cIAP-1 and cIAP-2 proteins are readily undetectable shortly post treatment. SW IV-134 treatment also leads to accumulation of NF-қB inducing kinase (NIK) and activation of NF-қB pathway. (B) SKOV3 cells were treated with SW IV-134 at the indicated doses either alone or in the presence of proteasome inhibitor MG132 (20 μM) for 18 hours. […] Cell viability was determined as described in the experimental methods (p < 0.011, Student’s t-test).
(§2) Cells were lysed in radioimmunoprecipitation assay buffer [50 mM Tris, 150 mM sodium chloride, 1.0 mM EDTA, 1% Nonidet P40, and 0.25% SDS (pH 7.0)], supplemented with complete protease inhibitor cocktail (Roche, Mannheim) and phosphatase inhibitor cocktail 1 (Sigma Chemical Co., St. Louis, MO). The protein concentration was determined using a BioRad Dc protein assay kit (Bio-Rad Laboratories, Hercules, CA). Lysates containing 30 μg of protein were run on a 12% polyacrylamide gel and transferred to a PVDF membrane (Bio-Rad Laboratories, Hercules, CA). […]
(In general: In western blotting, separated proteins are transferred to a membrane and probed.)

Assay [4] deals with cIAP-1 and cIAP-2. In words: Western blot for cIAP-1 and cIAP-2 levels. The assay is classed as cell-based. Particulars: 10 μM. On the procedure:
as §1, §2

What is called Ki is the dissociation constant of the complex between target and ligand, obtained from inhibition or displacement. A higher Ki goes with a looser hold on the target. Take `COc1ccc(C)cc1NC(=O)OC1CC2CCCC(C1)N2CCCCCCCCCCN` (stereo not shown) [SW43, reference compound]: the “Blocking of SW120 uptake” value in assay [1] is “prevents uptake of the fluorescently labeled sigma-2 ligand SW120 in a dose-dependent fashion”. In assay [2], the affinity, expressed as Ki, was 0.134 ± 0.0119 µM.
In the case of `COc1ccc(C)cc1NC(=O)OC1CC2CCCC(C1)N2CCCCCCCCCCN[C@@H](C)C(=O)N[C@H](C(=O)N1CCC[C@H]1C(=O)N[C@@H]1CCCc2ccccc21)C(C)(C)C` (stereo partly shown) [SW IV-134], in assay [1], the “Blocking of SW120 uptake” value is given as “dose-dependent reduction of SW120 signal intensity”. Also, the XIAP levels result in assay [3] is “without affecting the XIAP levels”. This compound displayed a Ki in assay [2] of 5.74 ± 0.476 µM. The cIAP-1 protein level entry in assay [4] (SKOV3, Hey A8 and Hey A8 MDR cells, 2 hours) is recorded as “readily undetectable shortly after treatment”. For the same compound, the “cIAP-1 and cIAP-2 protein levels” value in assay [4] (SKOV3 cells, 4 hours) is “rapid loss of both cIAP-1 and cIAP-2”.
